biological target: T1, glucan synthase (GS) prepared from Candida albicans MY1055 (Candida albicans, UniProt O13428); test: Glucan synthase inhibition (polymerization assay, 96-well, 3H-UDPG incorporation); assay type: biochemical; settings: glucan synthase from C. albicans MY1055
T1 construct: Extraction of GS activity from membranes was performed at a protein concentration of 5 mg/mL in extraction buffer; endogenous in cells; host or cells: Candida albicans MY1055 (membranes, detergent extract, product entrapment)
T1 sequence (O13428 1-1897): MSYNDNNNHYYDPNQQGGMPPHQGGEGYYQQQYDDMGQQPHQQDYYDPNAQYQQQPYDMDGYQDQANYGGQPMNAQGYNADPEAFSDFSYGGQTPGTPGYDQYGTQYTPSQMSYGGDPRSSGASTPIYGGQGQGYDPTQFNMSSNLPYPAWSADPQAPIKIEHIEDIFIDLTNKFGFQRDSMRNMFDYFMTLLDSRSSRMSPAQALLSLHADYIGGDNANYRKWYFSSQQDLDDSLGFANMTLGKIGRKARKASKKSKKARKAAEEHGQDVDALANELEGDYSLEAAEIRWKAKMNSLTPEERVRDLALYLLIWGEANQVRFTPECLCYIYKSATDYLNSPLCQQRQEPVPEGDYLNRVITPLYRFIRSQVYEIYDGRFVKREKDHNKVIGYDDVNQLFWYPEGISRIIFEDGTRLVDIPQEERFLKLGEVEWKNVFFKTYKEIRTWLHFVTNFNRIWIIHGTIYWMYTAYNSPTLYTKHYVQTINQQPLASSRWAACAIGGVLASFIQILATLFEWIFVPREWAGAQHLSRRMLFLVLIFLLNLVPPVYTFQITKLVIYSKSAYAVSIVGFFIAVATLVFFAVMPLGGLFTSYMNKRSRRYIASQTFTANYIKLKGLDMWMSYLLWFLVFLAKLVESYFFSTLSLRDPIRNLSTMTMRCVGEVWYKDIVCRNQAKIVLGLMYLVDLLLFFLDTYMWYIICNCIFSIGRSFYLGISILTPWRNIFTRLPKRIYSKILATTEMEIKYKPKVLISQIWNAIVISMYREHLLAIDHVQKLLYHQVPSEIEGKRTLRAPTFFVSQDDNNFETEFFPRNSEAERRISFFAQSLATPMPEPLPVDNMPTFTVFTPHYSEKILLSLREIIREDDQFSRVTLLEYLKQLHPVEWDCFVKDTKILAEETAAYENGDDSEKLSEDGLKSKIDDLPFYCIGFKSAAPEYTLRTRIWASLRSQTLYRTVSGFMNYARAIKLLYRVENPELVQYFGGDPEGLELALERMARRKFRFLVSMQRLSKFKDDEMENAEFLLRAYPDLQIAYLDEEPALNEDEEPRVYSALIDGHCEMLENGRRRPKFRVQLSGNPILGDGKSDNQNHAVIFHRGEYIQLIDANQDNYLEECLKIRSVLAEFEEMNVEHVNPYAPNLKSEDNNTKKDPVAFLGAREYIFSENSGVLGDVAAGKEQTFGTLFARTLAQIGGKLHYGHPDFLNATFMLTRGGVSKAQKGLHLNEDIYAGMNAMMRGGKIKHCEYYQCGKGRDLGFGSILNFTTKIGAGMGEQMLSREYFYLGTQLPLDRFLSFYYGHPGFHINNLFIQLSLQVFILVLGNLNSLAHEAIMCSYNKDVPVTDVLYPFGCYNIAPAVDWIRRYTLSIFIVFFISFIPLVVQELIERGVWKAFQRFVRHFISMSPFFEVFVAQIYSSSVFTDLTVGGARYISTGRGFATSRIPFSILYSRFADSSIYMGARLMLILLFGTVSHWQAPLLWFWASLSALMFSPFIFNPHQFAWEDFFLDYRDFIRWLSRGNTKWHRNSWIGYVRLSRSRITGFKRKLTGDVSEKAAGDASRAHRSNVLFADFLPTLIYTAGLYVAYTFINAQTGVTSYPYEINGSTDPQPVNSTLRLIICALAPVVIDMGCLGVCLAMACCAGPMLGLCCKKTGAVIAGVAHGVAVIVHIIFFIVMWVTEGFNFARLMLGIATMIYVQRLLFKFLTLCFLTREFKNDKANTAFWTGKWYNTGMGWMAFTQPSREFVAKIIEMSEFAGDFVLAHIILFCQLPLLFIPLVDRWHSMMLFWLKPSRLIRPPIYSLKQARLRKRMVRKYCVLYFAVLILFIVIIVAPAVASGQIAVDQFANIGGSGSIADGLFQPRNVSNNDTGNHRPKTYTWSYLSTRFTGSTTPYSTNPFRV
T1 sequence (O42825 whole entry partner): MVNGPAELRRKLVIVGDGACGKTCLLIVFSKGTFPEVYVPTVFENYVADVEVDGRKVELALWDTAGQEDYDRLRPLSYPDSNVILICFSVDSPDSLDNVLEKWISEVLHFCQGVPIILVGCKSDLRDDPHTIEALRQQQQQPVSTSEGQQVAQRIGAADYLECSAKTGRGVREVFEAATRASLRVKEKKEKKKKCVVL
Experimental: The in vitro evaluation of glucan synthase inhibitory activity of compounds was measured in a polymerization assay in 96-well format. Each well contained 100 μL of ^3H-UDPG at 0.5 mM (6000 to 8000 dpm/nmol), 50 mM HEPES pH 7.5 (Sigma), 10% w/v glycerol (Sigma), 1.5 mg/mL bovine serum albumin (Sigma A 9647. Lot 44H0190), 25 mM KF (Fisher), 1 mM EDTA (Gibco Ultrapure), 25 μM GTP-γ-S, enzyme sufficient to give 3 to 6 nmoles incorporation during the 60 min incubation at 22° C., and test compound added from wells in 3-fold serial dilutions in 100% DMSO (1 μL/well). The reaction was stopped by the addition of 100 μL of 20% trichloroacetic acid. Plates were chilled for a minimum of 10 min, and precipitated glucan collected by filtration on GF/C plates (Packard Unifilter®-96), washed with 5 cycles of water (about 1 mL/well each cycle) using a Packard Filtermate Harvester. 40 μL/well scintillation fluid (Packard Ultima Gold TM-XR) was added and the sealed plates counted in a Wallac Beta counter in top-counting mode at an efficiency of approximately 40%.
Stock solutions were stored at 10 mg/mL in DMSO at −20° C. For each new enzyme preparation, the initial titration performed started at 1 mg/mL, which was prepared by making a 10-fold dilution in DMSO (5 μL to 50 μL). 40 μL of this stock was placed in column 12 of a round-bottomed 96-well microtiter plate. 40 μL DMSO was added to columns 1 to 11 in the same row and ten 3-fold serial dilutions performed, by transferring 20 μL from column 12 to column 11 etc., with 4 mixings before each transfer. No test compound was transferred to from column 2 to column 1. Duplicate aliquots of 1 μL of all 12 dilutions were then transferred to the side walls of a 96-well Bioblock 1.1 mL plate (Fisherbrand) to create two rows.
The results were tabulated and a standard plate background was subtracted and the net count transpose-pasted into a Prism file, with final compound concentrations used in ng/mL. Graphs were created in Prism software, using the average of two determinations, and using Prism's curve fitting program (sigmoidal dose response non-linear regression).
Routine analysis was performed with glucan synthase (GS) prepared from Candida albicans MY1055 by the following procedure: MY1055 was grown in 10 liters YPD medium (10 g yeast extract, 20 g tryptone, 20 g glucose per liter) with vigorous shaking at 30° C., to early stationary phase. Cells were harvested by centrifugation, the pellet was washed and frozen at −70° C. until breakage. Thawed pellets were shaken with an equal volume of breakage buffer (50 mM HEPES pH 7.4, 10% glycerol, 1 mM EDTA, 1 mM PMSF, 1 mM DTT) and 4 times their weight of 0.5 mm acid washed glass beads for 2 hours at 4° C. Extent of breakage was assessed visually at 40× magnification. For C. parapsilosis strains, shaking was extended to 3 hours to maximize breakage. After low speed centrifugation to remove cell debris, the supernatant was centrifuged at 100,000×g for 60 min. to separate membranes plus ribosomes from cytoplasmic components. Membranes were further washed two additional times with breakage buffer using the same centrifugation conditions and finally suspended in breakage buffer at 25 to 30 mg/mL protein (Biorad) for storage at −70° C. Extraction of GS activity from membranes was performed at a protein concentration of 5 mg/mL in extraction buffer (50 mM NaPO4 pH 7.5, 0.1 M KCl, 0.1M Na citrate, 20% glycerol, 5 μM GTP-γ-S, 1 mM DTT, 1 mM PMSF, 3 μg/mL pepstatin) plus 0.25% W1 by gentle mixing at 4° C. for 60 min, followed by centrifugation at 100,000×g for 60 min. After centrifugation, clear supernatant was removed from a pellet consisting of a hard layer usually with small amounts of gelatinous unextracted membranes above it. […]

SMILES | IC50 [nM]
CC(=O)O[C@@H]1C[C@@]23COC[C@](C)([C@@H]2CC[C@H]2C3=CC[C@@]3(C)[C@H](C(=O)O)[C@@](C)([C@H](C)C(C)C)CC[C@]23C)[C@H]1OCCN [Example 1, (1S,2R,3R,4aR,6aS,7R,8R,10aR,10bR,12aR)-3-(acetyloxy)-2-(2-aminoethoxy)-8-[(1R)-1,2-dimethylpropyl]-1,6a,8,10a-tetramethyl-1,3,4,6,6a,7,8,9,10,10a,10b,11,12,12a-tetradecahydro-2H-1,4a-(methanooxymethano)chrysene-7-carboxylic acid] | 81.9
CC(=O)O[C@@H]1C[C@@]23COC[C@](C)(C2CC[C@H]2C3=CC[C@@]3(C)[C@H](C(=O)O)[C@@](C)([C@H](C)C(C)C)CC[C@]23C)[C@H]1OCC(C)N (stereo partly drawn) [Example 2, (1S,2R,3R,4aR,6aS,7R,8R,10aR,10bR,12aR)-3-(Acetyloxy)-2-(2-aminopropoxy)-8-[(1R)-1,2-dimethylpropyl]-1,6a,8,10a-tetramethyl-1,3,4,6,6a,7,8,9,10,10a,10b,11,12,12a-tetradecahydro-2H-1,4a-(methanooxymethano)chrysene-7-carboxylic acid] | 39.1
CC(=O)O[C@@H]1C[C@@]23COC[C@](C)([C@@H]2CC[C@H]2C3=CC[C@@]3(C)[C@H](C(=O)O)[C@@](C)([C@H](C)C(C)C)CC[C@]23C)[C@H]1OCCNC(=O)C(N)CN (stereo partly drawn) [Example 5, (1S,2R,3R,4aR,6aS,7R,8R,10aR,10bR,12aR)-3-(acetyloxy)-2-[2-(2,3-diaminopropionylamino)-ethoxy]-8-[(1R)-1,2-dimethylpropyl]-1,6a,8,10a-tetramethyl-1,3,4,6,6a,7,8,9,10,10a,10b,11,12,12a-tetradecahydro-2H-1,4a-(methanooxymethano)chrysene-7-carboxylic acid] | 126
CC(=O)O[C@@H]1C[C@@]23COC[C@](C)([C@@H]2CC[C@H]2C3=CC[C@@]3(C)[C@H](C(=O)O)[C@@](C)([C@H](C)C(C)C)CC[C@]23C)[C@H]1OCCNC(=N)N [Example 6, (1S,2R,3R,4aR,6aS,7R,8R,10aR,10bR,12aR)-3-(acetyloxy)-2-(2-guanidino-ethoxy)-8-[(1R)-1,2-dimethylpropyl]-1,6a,8,10a-tetramethyl-1,3,4,6,6a,7,8,9,10,10a,10b, 11,12,12a-tetradecahydro-2H-1,4a-(methanooxymethano)chrysene-7-carboxylic acid] | 19.5
CC(=O)O[C@@H]1C[C@@]23COC[C@](C)([C@@H]2CC[C@H]2C3=CC[C@@]3(C)[C@H](C(=O)O)[C@@](C)([C@H](C)C(C)C)CC[C@]23C)[C@H]1OCCNCCCN [Example 8, (1S,2R,3R,4aR,6aS,7R,8R,10aR,10bR,12aR)-3-(acetyloxy)-2-[2-(3-aminopropylamino)-ethoxy]-8-[(1R)-1,2-dimethylpropyl]-1,6a,8,10a-tetramethyl-1,3,4,6,6a,7,8,9,10,10a,10b,11,12,12a-tetradecahydro-2H-1,4a-(methanooxymethano)chrysene-7-carboxylic acid] | 25.4
CC(=O)O[C@@H]1C[C@@]23COC[C@](C)(C2CC[C@H]2C3=CC[C@@]3(C)[C@H](C(=O)O)[C@@](C)([C@H](C)C(C)C)CC[C@]23C)[C@H]1OCCNC[C@@H](N)CCCCN (stereo partly drawn) [Example 21, (1S,2R,3R,4aR,6aS,7R,8R,10aR,10bR,12aR)-3-(acetyloxy)-2-[2-((S)-2,6-diaminohexylamino)-ethoxy]-8-[(1R)-1,2-dimethylpropyl]-1,6a,8,10a-tetramethyl-1,3,4,6,6a,7,8,9,10,10a,10b,11,12,12a-tetradecahydro-2H-1,4a-(methanooxymethano)chrysene-7-carboxylic acid] | 59.6
CC(=O)O[C@@H]1C[C@@]23COC[C@](C)(C2CC[C@H]2C3=CC[C@@]3(C)[C@H](C(=O)O)[C@@](C)([C@H](C)C(C)C)CC[C@]23C)[C@H]1OCCNC(=N)NC(C)(C)C (stereo partly drawn) [Example 24, (1S,2R,3R,4aR,6aS,7R,8R,10aR,10bR,12aR)-3-(acetyloxy)-2-[2-(N′-tert-butylguanidino)-ethoxy]-8-[(1R)-1,2-dimethylpropyl]-1,6a,8,10a-tetramethyl-1,3,4,6,6a,7,8,9,10,10a,10b,11,12,12a-tetradecahydro-2H-1,4a-(methanooxymethano)chrysene-7-carboxylic acid] | 32.7
CC(=O)O[C@@H]1C[C@@]23COC[C@@](C)([C@@H]2CC[C@H]2C3=CC[C@@]3(C)[C@H](C(=O)O)[C@@](C)([C@H](C)C(C)C)CC[C@]23C)[C@H]1OCCCN [Example 35, (1S,2R,3R,4aR,6aS,7R,8R,10aR,10bR,12aR)-3-(acetyloxy)-2-(3-aminopropoxy)-8-[(1R)-1,2-dimethylpropyl]-1,6a,8,10a-tetramethyl-1,3,4,6,6a,7,8,9,10,10a,10b,11,12,12a-tetradecahydro-2H-1,4a-(methanooxymethano)chrysene-7-carboxylic acid] | 47.6
CC(=O)O[C@@H]1C[C@@]23COC[C@](C)(C2CC[C@H]2C3=CC[C@@]3(C)[C@H](C(=O)O)[C@@](C)([C@H](C)C(C)C)CC[C@]23C)[C@H]1OCCCCN (stereo partly drawn) [Example 40, (1S,2R,3R,4aR,6aS,7R,8R,10aR,10bR,12aR)-3-(acetyloxy)-2-(4-aminobutoxy)-8-[(1R)-1,2-dimethylpropyl]-1,6a,8,10a-tetramethyl-1,3,4,6,6a,7,8,9,10,10a,10b,11,12,12a-tetradecahydro-2H-1,4a-(methanooxymethano)chrysene-7-carboxylic acid] | 51.5
CC(=O)O[C@@H]1C[C@@]23COC[C@](C)([C@@H]2CC[C@H]2C3=CC[C@@]3(C)[C@H](C(=O)O)[C@@](C)([C@H](C)C(C)C)CC[C@]23C)[C@H]1OCC(O)(CO)CO [Example 44, (1S,2R,3R,4aR,6aS,7R,8R,10aR,10bR,12aR)-3-(acetyloxy)-2-(2,3-dihydroxy-2-hydroxymethylpropoxy)-8-[(1R)-1,2-dimethylpropyl]-1,6a,8,10a-tetramethyl-1,3,4,6,6a,7,8,9,10,10a,10b,11,12,12a-tetradecahydro-2H-1,4a-(methanooxymethano)chrysene-7-carboxylic acid] | 616
CC(=O)O[C@@H]1C[C@@]23COC[C@](C)([C@@H]2CC[C@H]2C3=CC(=O)[C@@]3(C)[C@H](C(=O)O)[C@@](C)([C@H](C)C(C)C)CC[C@]23C)[C@H]1OCCN [Example 47, (1S,2R,3R,4aR,6aS,7R,8R,10aR,10bR,12aR)-3-(acetyloxy)-2-(2-aminoethoxy)-8-[(1R)-1,2-dimethylpropyl]-1,6a,8,10a-tetramethyl-6-oxo-1,3,4,6,6a,7,8,9,10,10a,10b,11,12,12a-tetradecahydro-2H-1,4a-(methanooxymethano)chrysene-7-carboxylic acid] | 78.3
CC(=O)O[C@@H]1C[C@@]23COC[C@](C)([C@@H]2CC[C@H]2C3=CC(=O)[C@@]3(C)[C@H](C(=O)O)[C@@](C)([C@H](C)C(C)C)CC[C@]23C)[C@H]1OCCNC(=N)N [Example 48, (1S,2R,3R,4aR,6aS,7R,8R,10aR,10bR,12aR)-3-(acetyloxy)-2-(2-guanidinoethoxy)-8-[(1R)-1,2-dimethylpropyl]-1,6a,8,10a-tetramethyl-6-oxo-1,3,4,6,6a,7,8,9,10,10a,10b,11,12,12a-tetradecahydro-2H-1,4a-(methanooxymethano)chrysene-7-carboxylic acid] | 28.6

— patent publication US7863465B2, “Antifungal agents” (Merck Sharp & Dohme Corp., priority 2006, dated 2011)
